Results on two compounds are retold here after ChEMBL document CHEMBL2086334, “Fluorogenic assay of alkaline phosphatase activity based on the modulation of excited-state intramolecular proton transfer” (Bioorg Med Chem Lett, 2012).

SMILES strings stand for the structures. pIC50: −log10 of the molar value. The source made the active and inactive calls. No cut-off for these calls is given here.

Assay [1] in a line: Inhibition of alkaline phosphatase.
The nature of assay [2]: Activity of alkaline phosphatase assessed as compound hydrolysis at 20 uM assessed as increase in fluorescence intensity every 1 min for 10 mins by fluorescence spectrophotometry relative to control.
The nature of assay [3]: Activity of alkaline phosphatase assessed as compound hydrolysis assessed as increase in fluorescence intensity measured every 30 secs for 10 mins by Lineweaver-Burk plot analysis.
The nature of assay [4]: Activity of levamisole-pretreated alkaline phosphatase assessed as compound hydrolysis at 20 uM measured every 0.5 mins for 10 mins by fluorescence spectrophotometry.
Assay [5] in a line: Activity of alkaline phosphatase assessed as compound hydrolysis at 20 uM at 0.1 to 50 nM enzyme concentration measured every 1 min for 10 mins by fluorescence spectrophotometry.

Usually pIC50 stands for the negative decadic logarithm of the IC50, by convention in mol/L. The low end stands for a large IC50, the high end for a small IC50. `c1ccc([C@H]2CN3CCSC3=N2)cc1` [LEVAMISOLE] had a pIC50 in assay [1] of 4.88.

The term Km denotes the concentration of substrate that gives half-maximal velocity. As usually defined, the kcat is the number of substrate molecules converted per active site and unit of time at saturation. In the case of `O=P(O)(O)Oc1ccccc1-c1nc(-c2ccccc2)cs1`, in assay [2], the fold change (FC) was 455. Moreover, in assay [3], the Km was found to be 1.9 µM and the kcat is 0.09 s⁻¹. For the same compound, in assay [4], the outcome was inactive. In addition, the result in assay [5] was Active.
